Measurements from PubChem BioAssay (NCI).
Values joined by “and” are separate entries in the source; they are usually repeats but may differ in a detail not shown here. Equal values may be shown once.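 1) Cells in 96-well plates. 2) Compound, 48 h, 5 concentrations. 3) Linear interpolation between surrounding doses. 4) Unreached endpoint = highest concentration. GI50 marks 50% less growth. TGI denotes the concentration required for complete inhibition of growth.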

Key:
Test in all cases: NCI tumour cell line growth inhibition, 48 h
[1] = test system: MCF7 breast
[2] = test system: M19-MEL melanoma
[3] = test system: BT-549 breast
[4] = test system: RPMI-8226 leukemia
[5] = test system: XF 498 CNS
[6] = test system: MDA-MB-435
[7] = test system: HS 578T breast
[8] = test system: SK-MEL-28 melanoma
[9] = test system: DMS 114 small cell lung
[10] = test system: KM20L2 colon

| SMILES | TGI [1] [µM] | TGI [2] | TGI [3] [µM] | TGI [4] | TGI [5] | TGI [6] [µM] | TGI [7] [µM] | TGI [8] | TGI [9] | TGI [10] | GI50 [2] | GI50 [4] | GI50 [5] | GI50 [8] | GI50 [9] | GI50 [10] |
| --- | --- | --- | --- | --- | --- | --- | --- | --- | --- | --- | --- | --- | --- | --- | --- | --- |
| O=P1(O)c2ccccc2Nc2cc(C(F)(F)F)ccc21 | > 100 | > 100 µM | > 100 | > 100 µM | > 100 µM | > 100 | > 100 | > 100 µM | > 100 µM | > 100 µM |  |  |  |  |  |  |
| CNc1nc(N(C)C)nc(N(C)C)n1 | 1790 | > 100 µM and 3950 µM | 3620 | > 100 µM and 2940 µM | > 100 µM and 1720 µM | 4420 | 4450 | > 100 µM and 2700 µM | > 100 µM and 5500 µM | > 100 µM and 3210 µM | > 100 µM and 2040 µM | > 100 µM and 1500 µM | > 100 µM and 538 µM | > 100 µM and 1240 µM | > 100 µM and 527 µM | > 100 µM and 718 µM |
| COc1cc([C@@H]2OC(=O)C3C2C(=O)O[C@H]3c2cc(OC)c(OC)c(OC)c2)cc(OC)c1OC (stereo not given in full) |  | > 100 µM |  | > 100 µM | > 100 µM |  |  | > 100 µM | > 100 µM | > 100 µM |  |  |  |  |  |  |
| Cc1cccc2c1C(=O)OC2(C)c1cccc2ccccc12 (stereo not given) |  | > 100 µM |  | > 100 µM | 86 µM |  |  | > 100 µM | > 100 µM | 59.5 µM |  |  |  |  |  |  |
| Clc1ccc(SCCCCCCCCCCSc2ccc(Cl)cc2)cc1 |  | > 100 µM |  | > 100 µM | > 100 µM |  |  | > 100 µM | > 100 µM | > 87 µM |  |  |  |  |  |  |
| COc1ccc2c(c1)CC1c3c(cc4c(c3-2)OCO4)CCN1C (stereo not given) |  | 45.2 µM |  | 64.2 µM | 74 µM |  |  | 95.8 µM | 68.8 µM | > 100 µM |  |  |  |  |  |  |
| C=CCN=C1NC(=O)C(CC(=O)Nc2ccc(C)cc2)S1 (stereo not given) |  | > 100 µM |  | > 100 µM | > 100 µM |  |  | > 100 µM | > 100 µM | > 100 µM |  |  |  |  |  |  |
| CC12CC3CC(C1)CC(N=[N+]=[N-])(C3)C2 |  | > 100 µM |  | > 100 µM | > 100 µM |  |  | > 100 µM | > 100 µM | > 100 µM |  |  |  |  |  |  |
| CCOc1ccccc1NC(=O)C1=C(C)NC(C)=C(C(=O)Nc2ccccc2OCC)C1c1ccc(NC(C)=O)cc1 |  | > 100 µM |  | > 100 µM | 43.5 µM |  |  | > 100 µM | > 100 µM | 98.9 µM |  |  |  |  |  |  |
| Cc1ccc(C2=C(c3ccccc3)C(Br)(c3ccccc3)C(c3ccccc3)=C2c2ccc(C)cc2)cc1 |  | > 100 µM |  | > 100 µM | > 100 µM |  |  | > 100 µM | > 100 µM | > 100 µM |  |  |  |  |  |  |
| Cc1cc(=O)oc2cc(OCc3nc4ccccc4c(=O)[nH]3)ccc12 |  | > 100 µM |  | > 100 µM | > 100 µM |  |  | > 100 µM | > 100 µM | > 100 µM |  |  |  |  |  |  |
